Values after ≈ are worked out from the molar mass of the structure shown.
Key:
AECO001 (ATCC25922) = assay: MIC broth microdilution, AECO001; format: cell-based, E. coli; details: Escherichia coli, ATCC25922, read-out: MIC AECO001
Summary of the method: (§1)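 CLSI-guided microdilution: bacteria passaged overnight at 35° C. on Mueller-Hinton agar, tested in cation-adjusted broth at a final 3×10^5–7×10^5 CFU/mL across 2-fold drug dilutions, read after 18-24 h at 35° C.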

[1] = system: AECO063 (ATCC25922 bearing an acrAB mutation); assay: microbe, parasite or virus in culture; format: cell-based, E. coli; details: Escherichia coli, ATCC25922, read-out: MIC AECO063
Summary of the method: as §1

APAE001 (ATCC27853) = assay: MIC broth microdilution, APAE001; format: cell-based, P. aeruginosa; details: Pseudomonas aeruginosa, ATCC27853, read-out: MIC APAE001, APAE001 is ATCC27853
Summary of the method: as §1

[2] = system: APAE006 (strain of P. aeruginosa in which all efflux pumps are inactivated); assay: microbe, parasite or virus in culture; format: cell-based; details: Pseudomonas aeruginosa, read-out: MIC APAE006, P. aeruginosa, all efflux pumps inactivated
Summary of the method: as §1

[3] = system: APAE006 in the presence of 8 micrograms per milliliter of polymyxin B nonapeptide; format: cell-based, P. aeruginosa; details: in the presence of 8 micrograms per milliliter of polymyxin B nonapeptide
Summary of the method: as §1

[4] = system: AABA1060 (clinical isolate of Acinetobacter baumannii); assay: MIC broth microdilution, AABA1060; format: cell-based; details: Acinetobacter baumannii, read-out: MIC AABA1060
Summary of the method: as §1

[5] = system: ASAU001 (laboratory strain of S. aureus, ATCC29213); assay: MIC broth microdilution, ASAU001; format: cell-based; details: Staphylococcus aureus, ATCC29213, read-out: MIC ASAU001
Summary of the method: as §1

AECO001 HSA AGP = assay: MIC broth microdilution, AECO001 HSA AGP; format: cell-based, E. coli; details: Escherichia coli
Experimental: Bacterial isolates were cultivated from −70° C. frozen stocks by overnight passages at 35° C. in ambient air on Mueller-Hinton agar (Beckton Dickinson, Franklin Lakes, N.J.). Clinical isolates tested were obtained from various geographically diverse hospitals in the US and abroad (Focus Diagnostics, Herndon, Va. and JMI, North Liberty, Iowa). Quality control strains were from the American Type Culture Collection (ATCC; Rockville, Md.). Additional primary panel strains were generated using standard molecular biology techniques.
Minimum Inhibitory Concentrations (MICs) were determined by the broth microdilution method in accordance with the Clinical and Laboratory Standards Institute (CLSI) guidelines. In brief, organism suspensions were adjusted to a 0.5 McFarland standard to yield a final inoculum between 3×10^5 and 7×10^5 colony-forming units (CFU)/mL. Drug dilutions and inocula were made in sterile, cation adjusted Mueller-Hinton Broth (Beckton Dickinson). An inoculum volume of 100 μL was added to wells containing 100 μL of broth with 2-fold serial dilutions of drug. All inoculated microdilution trays were incubated in ambient air at 35° C. for 18-24 hours. […] Performance of the assay was monitored by the use of laboratory quality-control strains and levofloxacin, a compound with a defined MIC spectrum, in accordance with CLSI guidelines.
*AECO001 is ATCC25922, AECO063 is ATCC25922 bearing an acrAB mutation, APAE001 is ATCC27853, APAE006 is a strain of P. aeruginosa in which all efflux pumps are inactivated, APAE006+PMBN indicates MICs with the indicated strain in the presence of 8 micrograms per milliliter of polymyxin B nonapeptide, AABA1060 is a clinical isolate of Acinetobacter baumannii, ASAU001 is a laboratory strain of S. aureus (ATCC29213).

SMILES	MIC (AECO001 (ATCC25922))	MIC [1]	MIC (APAE001 (ATCC27853))	MIC [2]	MIC APAE006 + PMBN [3]	MIC [4]	MIC [5]	MIC (AECO001 HSA AGP)
C[C@@H](N)[C@H](NC(=O)c1ccc(C#CC#Cc2ccccc2)cc1)C(=O)NO [Example 82-4]	< 2 µg/mL	< 2 µg/mL	2 to 16 µg/mL (≈ 5.53 to 44.3 µM)	< 2 µg/mL	A (MIC's of 2.0 μg/mL or less = A)	2 to 16 µg/mL (≈ 5.53 to 44.3 µM)	2 to 16 µg/mL (≈ 5.53 to 44.3 µM)	2 to 16 µg/mL (≈ 5.53 to 44.3 µM)
C[C@@H](N)[C@H](NC(=O)c1ccc(C#CC#Cc2cccc(F)c2)cc1)C(=O)NO [Example 82-5]	< 2 µg/mL	< 2 µg/mL	< 2 µg/mL	< 2 µg/mL	A (MIC's of 2.0 μg/mL or less = A)	2 to 16 µg/mL (≈ 5.27 to 42.2 µM)	2 to 16 µg/mL (≈ 5.27 to 42.2 µM)	2 to 16 µg/mL (≈ 5.27 to 42.2 µM)
C[C@@H](O)[C@H](NC(=O)c1ccc(C#CC#Cc2ccc(C(F)(F)F)cc2)cc1)C(=O)NO [Example 82-6]	< 2 µg/mL	< 2 µg/mL	2 to 16 µg/mL (≈ 4.65 to 37.2 µM)	2 to 16 µg/mL (≈ 4.65 to 37.2 µM)	A (MIC's of 2.0 μg/mL or less = A)	16 to 64 µg/mL (≈ 37.2 to 149 µM)	16 to 64 µg/mL (≈ 37.2 to 149 µM)	2 to 16 µg/mL (≈ 4.65 to 37.2 µM)
C[C@@H](N)[C@H](NC(=O)c1ccc(C#CC#Cc2ccccc2F)cc1)C(=O)NO [Example 82-7]	< 2 µg/mL	< 2 µg/mL	< 2 µg/mL	< 2 µg/mL	A (MIC's of 2.0 μg/mL or less = A)	< 2 µg/mL	2 to 16 µg/mL (≈ 5.27 to 42.2 µM)	2 to 16 µg/mL (≈ 5.27 to 42.2 µM)
C[C@@H](N)[C@H](NC(=O)c1ccc(C#CC#Cc2ccc(Cl)cc2)cc1)C(=O)NO [Example 82-8]	< 2 µg/mL	< 2 µg/mL	16 to 64 µg/mL (≈ 40.4 to 162 µM)	< 2 µg/mL	A (MIC's of 2.0 μg/mL or less = A)	> 64 µg/mL	> 64 µg/mL	2 to 16 µg/mL (≈ 5.05 to 40.4 µM)
C[C@@H](N)[C@H](NC(=O)c1ccc(C#CC#Cc2cccc(Cl)c2)cc1)C(=O)NO [Example 82-9]	< 2 µg/mL	< 2 µg/mL	2 to 16 µg/mL (≈ 5.05 to 40.4 µM)	< 2 µg/mL	A (MIC's of 2.0 μg/mL or less = A)	2 to 16 µg/mL (≈ 5.05 to 40.4 µM)	2 to 16 µg/mL (≈ 5.05 to 40.4 µM)	2 to 16 µg/mL (≈ 5.05 to 40.4 µM)
C[C@@H](N)[C@H](NC(=O)c1ccc(C#CC#Cc2ccccc2Cl)cc1)C(=O)NO [Example 82-10]	< 2 µg/mL	< 2 µg/mL	2 to 16 µg/mL (≈ 5.05 to 40.4 µM)	< 2 µg/mL	A (MIC's of 2.0 μg/mL or less = A)	2 to 16 µg/mL (≈ 5.05 to 40.4 µM)	2 to 16 µg/mL (≈ 5.05 to 40.4 µM)	2 to 16 µg/mL (≈ 5.05 to 40.4 µM)
C[C@@H](N)[C@H](NC(=O)c1ccc(C#CC#Cc2ccc(OC(F)(F)F)cc2)cc1)C(=O)NO [Example 82-11]	2 to 16 µg/mL (≈ 4.49 to 35.9 µM)	< 2 µg/mL	16 to 64 µg/mL (≈ 35.9 to 144 µM)	2 to 16 µg/mL (≈ 4.49 to 35.9 µM)	A (MIC's of 2.0 μg/mL or less = A)	16 to 64 µg/mL (≈ 35.9 to 144 µM)	16 to 64 µg/mL (≈ 35.9 to 144 µM)	2 to 16 µg/mL (≈ 4.49 to 35.9 µM)
C[C@@H](N)[C@H](NC(=O)c1ccc(C#CC#Cc2ccc(F)cc2)cc1)C(=O)NO [Example 82-12]	< 2 µg/mL	< 2 µg/mL	2 to 16 µg/mL (≈ 5.27 to 42.2 µM)	< 2 µg/mL	A (MIC's of 2.0 μg/mL or less = A)	2 to 16 µg/mL (≈ 5.27 to 42.2 µM)	16 to 64 µg/mL (≈ 42.2 to 169 µM)	2 to 16 µg/mL (≈ 5.27 to 42.2 µM)
CC(C)(O)[C@H](NC(=O)c1ccc(C#CC#Cc2ccccc2)cc1)C(=O)NO [Example 82-13]	< 2 µg/mL	< 2 µg/mL	< 2 µg/mL	< 2 µg/mL	A (MIC's of 2.0 μg/mL or less = A)	< 2 µg/mL	16 to 64 µg/mL (≈ 42.5 to 170 µM)	< 2 µg/mL
C[C@@H](O)[C@H](NC(=O)c1ccc(C#CC#Cc2ccc(CO)cc2)cc1)C(=O)NO [Example 82-14]	< 2 µg/mL	< 2 µg/mL	< 2 µg/mL	< 2 µg/mL	A (MIC's of 2.0 μg/mL or less = A)	< 2 µg/mL	16 to 64 µg/mL (≈ 40.8 to 163 µM)	16 to 64 µg/mL (≈ 40.8 to 163 µM)
CC(C)(O)[C@H](NC(=O)c1ccc(C#CC#Cc2ccc(CO)cc2)cc1)C(=O)NO [Example 82-15]	< 2 µg/mL	< 2 µg/mL	< 2 µg/mL	< 2 µg/mL	A (MIC's of 2.0 μg/mL or less = A)	< 2 µg/mL	16 to 64 µg/mL (≈ 39.4 to 157 µM)	16 to 64 µg/mL (≈ 39.4 to 157 µM)
C[C@@H](N)[C@H](NC(=O)c1ccc(C#CC#Cc2ccc(N)cc2)cc1)C(=O)NO [Example 82-16]	< 2 µg/mL	< 2 µg/mL	< 2 µg/mL	< 2 µg/mL	A (MIC's of 2.0 μg/mL or less = A)	< 2 µg/mL	16 to 64 µg/mL (≈ 42.5 to 170 µM)	2 to 16 µg/mL (≈ 5.31 to 42.5 µM)
O=C(CNC1CC1)NC[C@H](NC(=O)c1ccc(C#CC#Cc2ccccc2)cc1)C(=O)NO [Example 85-1, N—[(S)-2-(2-Cyclopropylamino-acetylamino)-1-hydroxycarbamoyl-ethyl]-4-(4-phenyl-buta-1,3-diynyl)-benzamide]	< 2 µg/mL	< 2 µg/mL	2 to 16 µg/mL (≈ 4.5 to 36 µM)	< 2 µg/mL	A (MIC's of 2.0 μg/mL or less = A)	16 to 64 µg/mL (≈ 36 to 144 µM)	16 to 64 µg/mL (≈ 36 to 144 µM)	2 to 16 µg/mL (≈ 4.5 to 36 µM)
C[C@@H](NC(=O)CNC1CC1)[C@H](NC(=O)c1ccc(C#CC#Cc2ccccc2)cc1)C(=O)NO [Example 85-2]	< 2 µg/mL	< 2 µg/mL	2 to 16 µg/mL (≈ 4.36 to 34.9 µM)	< 2 µg/mL	A (MIC's of 2.0 μg/mL or less = A)	16 to 64 µg/mL (≈ 34.9 to 140 µM)	16 to 64 µg/mL (≈ 34.9 to 140 µM)	2 to 16 µg/mL (≈ 4.36 to 34.9 µM)
C[C@@H](N)[C@H](NC(=O)c1ccc(C#CC#Cc2ccc(CN3CCOCC3)cc2)cc1)C(=O)NO [Example 86-2]	< 2 µg/mL	< 2 µg/mL	2 to 16 µg/mL (≈ 4.34 to 34.7 µM)	< 2 µg/mL	A (MIC's of 2.0 μg/mL or less = A)	2 to 16 µg/mL (≈ 4.34 to 34.7 µM)	16 to 64 µg/mL (≈ 34.7 to 139 µM)	< 2 µg/mL
